# How the values were obtained:
# cervix [1] = conditions: 3000 units in the cervical os, Perezgrovas and Anderson (1982); cited from earlier work
# cervix [2] = conditions: 2-mg dose in methylcellulose gel, MacLennan et al. (1981); cited from earlier work
# [3] = RP-HPLC stability of topical relaxin (3% methylcellulose gel); assay type: physicochemical; conditions: in contrast to shortened B-chain human relaxin
# Protocol: The RP-HPLC method used for analyzing the liquid relaxin formulation, described in Example I, was modified for use with topical relaxin samples. Due to the high viscosity of the gel, samples were diluted ten-fold with water, vortexed for ^~ 5 minutes to homogenize the gel, and left undisturbed to let the bubbles rise. Analysis of these samples was performed by injecting 250 μl onto a C4-300 SynChropak (4.6×250 mm) column at room temperature. The initial equilibration buffer was 18% acetonitrile, 0.1% trifluoroacetic acid. The elution was carried out by running a 1%/min. increasing linear acetonitrile gradient to a final concentration of 45% acetonitrile after 30 minutes. The flow rate was held constant at 1.0 ml/min. and the absorbance was monitored at 214 nm. The "slowdown" step (the time it takes to draw the viscous gel into the metering device) was increased from […].
# Three significant stability experiments were performed on the topical relaxin formulation. The first was to measure the stability of these preparations after being left out at room temperature for five weeks. The sample remained in the original syringe, subject to the fluctuations of temperature and light.
# The second study was a measure of the stability of topical relaxin under well controlled conditions at 5° C. and 25° C. […]
# rabbit cervix = assay: Efficacy on ripening of the rabbit cervix, intravaginal gel; assay type: in vivo; conditions: initial study, 300 μg/ml topical gel, 0.5 ml intravaginally, eighteen hours after application
# Protocol: Mature pregnant female New Zealand rabbits weighing 4.5 to 6.0 kg were studied. […] Both hormones were applied intravaginally by means of a syringe and a catheter in a volume of 0.5 ml. Control animals received the vehicle alone. After 16-18 hours, the animals were sacrificed using a lethal dose of pentobarbital. […] Paraffin sections were cut and stained with hematoxylin/eosin and alcian blue PAS. Sections were evaluated for general morphology, and specifically for the degree of separation of muscular tissue and collagen fibrils in the submucosa and for the presence of characteristic PAS positive giant cells, which are multinucleate cells of macrophage origin that normally infiltrate the cervix during labor. The measurement of giant cells is accomplished using the procedure described by MacLennan et al., Am J. Obstet. Gynecol., 152: 691-696 (1985).
substance,measurement,setting,value
porcine relaxin,time to increased dilatation of the cervix after infusion,cervix [1],≤ 8 h
same,effect on cervical score,cervix [2],improve the cervical score
same,degradation of 600 μg/ml porcine relaxin in 3% Methocel gel by HPLC,[3],degraded very little
same,"cervical ripening, morphology of the pregnant cervix",rabbit cervix,significant dilation and cervical ripening were observed

# From patent US5945402A (Genetech, Inc., priority 1995, dated 1999)
